Results from PMC12032945, “Estrogenic activity of E2-conjugated GLP-1 is mediated by intracellular endolysosomal acidification and estrone metabolism” (Molecular Metabolism, 2025).

Tests used:
[1] = system: G-protein coupled estrogen receptor 1 (GPER1); assay: cAMP production in GPER1+ HEK293T cells; format: cell-based
ERα and SP-1 = assay: Proximity ligation assay (PLA) ERα / SP-1; format: cell-based, human (hERα) in HEK293T cells; conditions: 1 μM; HEK293T overexpressing hGLP-1R and ERα
GLP-1R+ HEK293T cells = assay: estrone-3-sulfate ELISA in cell lysate; format: cell-based; conditions: 1 μM, 2 h
ERα = molecular target: T1, ERα (Homo sapiens, UniProt P03372); assay: Estrogen response element (ERE) luciferase reporter; format: cell-based, human (hERα) in HEK293T cells; conditions: bafilomycinA1 (5 μM) or EN6 (50 μM) with E2 or E2-3-ether; 24 h
T1 sequence (P03372 1-595): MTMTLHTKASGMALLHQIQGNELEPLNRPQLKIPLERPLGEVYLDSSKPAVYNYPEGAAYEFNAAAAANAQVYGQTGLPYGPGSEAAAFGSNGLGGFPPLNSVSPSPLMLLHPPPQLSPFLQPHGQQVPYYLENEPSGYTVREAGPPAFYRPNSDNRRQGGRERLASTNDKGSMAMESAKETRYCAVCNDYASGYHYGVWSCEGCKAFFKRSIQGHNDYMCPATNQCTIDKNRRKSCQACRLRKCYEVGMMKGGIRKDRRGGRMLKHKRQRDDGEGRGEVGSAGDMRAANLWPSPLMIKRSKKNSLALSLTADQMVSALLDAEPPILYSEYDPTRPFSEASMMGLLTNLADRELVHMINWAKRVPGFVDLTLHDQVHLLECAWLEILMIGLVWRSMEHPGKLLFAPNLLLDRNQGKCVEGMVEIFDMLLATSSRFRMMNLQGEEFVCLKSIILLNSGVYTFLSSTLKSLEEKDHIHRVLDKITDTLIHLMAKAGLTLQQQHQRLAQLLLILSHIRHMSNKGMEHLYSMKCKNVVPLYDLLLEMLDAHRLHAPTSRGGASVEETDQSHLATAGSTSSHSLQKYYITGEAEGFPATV

[2] = system: GLP-1R / Rab5+ early endosomes; assay: GLP-1R colocalization with Rab5+ early endosomes, BRET; conditions: with GLP-1 (7-36)amide (1 μM)
hGLP-1R [3] = molecular target: T2, hGLP-1R (Homo sapiens, UniProt P43220); assay: cAMP production, BRET, CLU177; format: cell-based, human (hGLP-1R) in mouse CLU177 cells
hGLP-1R [4] = molecular target: T2, hGLP-1R; assay: β-arrestin-2-Rluc8 recruitment to GLP-1R-GFP, BRET; format: cell-based, human (hGLP-1R) in HEK293T cells
hGLP-1R [5] = molecular target: T2, hGLP-1R; assay: GLP-1R-Rluc8 internalization away from GFP-CAAX, BRET; format: cell-based, human (hGLP-1R) in HEK293T cells
hGLP-1R [6] = molecular target: T2, hGLP-1R; assay: Nluc-mGαs recruitment to GLP-1R-GFP, BRET; format: cell-based, human (hGLP-1R) in HEK293T cells
hGLP-1R [7] = molecular target: T2, hGLP-1R; assay: Nluc-mGαq recruitment to GLP-1R-GFP, BRET; format: cell-based, human (hGLP-1R) in HEK293T cells
hGLP-1R [8] = molecular target: T2, hGLP-1R; assay: GLP-1R-Rluc8 internalization, BRET, CLU177; format: cell-based, human (hGLP-1R) in mouse CLU177 cells
hGLP-1R [9] = molecular target: T2, hGLP-1R; assay: Nluc-mGαs recruitment to GLP-1R, BRET, CLU177; format: cell-based, human (hGLP-1R) in mouse CLU177 cells
hGLP-1R [10] = molecular target: T2, hGLP-1R; assay: β-arrestin-2-Rluc8 recruitment, BRET, CLU177; format: cell-based, human (hGLP-1R) in mouse CLU177 cells
hGLP-1R [11] = molecular target: T2, hGLP-1R; assay: cAMP production, CAMYEL BRET; format: cell-based, human (hGLP-1R) in HEK293T cells
hGLP-1R [12] = molecular target: T2, hGLP-1R; assay: Nluc-mGαs recruitment to GLP-1R, BRET, MIN6; format: cell-based, human (hGLP-1R) in mouse MIN6 cells
hGLP-1R [13] = molecular target: T2, hGLP-1R; assay: GLP-1R-Rluc8 internalization, BRET, MIN6; format: cell-based, human (hGLP-1R) in mouse MIN6 cells
hGLP-1R [14] = molecular target: T2, hGLP-1R; assay: cAMP production, BRET, MIN6; format: cell-based, human (hGLP-1R) in mouse MIN6 cells
hGLP-1R [15] = molecular target: T2, hGLP-1R; assay: Nluc-mGαq recruitment to GLP-1R, BRET, MIN6; format: cell-based, human (hGLP-1R) in mouse MIN6 cells
hGLP-1R [16] = molecular target: T2, hGLP-1R; assay: β-arrestin-2-Rluc8 recruitment, BRET, MIN6; format: cell-based, human (hGLP-1R) in mouse MIN6 cells

T2 sequence (P43220 24-463): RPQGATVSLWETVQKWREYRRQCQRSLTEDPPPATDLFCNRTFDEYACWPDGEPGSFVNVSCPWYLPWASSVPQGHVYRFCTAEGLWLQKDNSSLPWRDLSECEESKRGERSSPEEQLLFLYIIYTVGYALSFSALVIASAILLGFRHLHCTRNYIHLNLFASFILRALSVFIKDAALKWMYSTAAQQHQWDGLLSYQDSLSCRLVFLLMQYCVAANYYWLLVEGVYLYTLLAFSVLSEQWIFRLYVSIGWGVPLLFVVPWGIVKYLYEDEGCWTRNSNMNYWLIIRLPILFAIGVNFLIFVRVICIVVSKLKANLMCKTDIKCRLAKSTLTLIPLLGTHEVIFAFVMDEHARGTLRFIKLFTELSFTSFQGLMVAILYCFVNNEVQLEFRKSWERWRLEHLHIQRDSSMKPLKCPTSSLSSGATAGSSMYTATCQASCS

C[C@]12CC[C@@H]3c4ccc(O)cc4CC[C@H]3[C@@H]1CC[C@@H]2O [E2, 17β-estradiol]
cAMP production via GPER1 [1]: did not observe E2-or G1-driven cAMP production | PLA: proximal localization of ERα and SP-1 (ERα and SP-1): significantly increase the proximal localization of ERα and the nucleus-localized transcription factor specificity protein-1 (SP-1) relative to GLP-1 (7-36)amide

C[C@]12CC[C@@H]3c4ccc(OCC(=O)O)cc4CC[C@H]3[C@@H]1CC[C@@H]2O [E2-3-ether, estradiol 3-carboxymethyl ether]
estrone-3-sulfate levels (GLP-1R+ HEK293T cells): significantly increased estrone-3-sulfate levels

C=CC(=O)Nc1cc(NC(=O)c2cnn(-c3ccccc3F)c2)ccc1F [EN6]
off-target effect on stimulated ERα activation (ERα): did not have off-target effects on stimulated ERα activation by E2 or E2-3-ether | endosomal trafficking dynamics on EN6 treatment ([2]; 50 μM): without altering endosomal trafficking dynamics

CC(=O)c1ccc2c(c1)C1C=CCC1C(c1cc3c(cc1Br)OCO3)N2 (centres unmarked) [G1]
cAMP production via GPER1 [1]: did not observe E2-or G1-driven cAMP production

CC[C@H](C)[C@H](NC(=O)[C@H](Cc1ccccc1)NC(=O)[C@H](CCC(=O)O)NC(=O)[C@H](CCCCN)NC(=O)[C@H](C)NC(=O)[C@H](C)NC(=O)[C@H](CCC(N)=O)NC(=O)[C@H](CCC(=O)O)NC(=O)[C@H](CCC(=O)O)NC(=O)[C@H](CC(C)C)NC(=O)[C@H](Cc1ccc(O)cc1)NC(=O)[C@H](CO)NC(=O)[C@H](CO)NC(=O)[C@@H](NC(=O)[C@H](CC(=O)O)NC(=O)[C@H](CO)NC(=O)[C@@H](NC(=O)[C@H](Cc1ccccc1)NC(=O)[C@@H](NC(=O)CNC(=O)[C@H](CCC(=O)O)NC(=O)C(C)(C)NC(=O)[C@@H](N)Cc1c[nH]cn1)[C@@H](C)O)[C@@H](C)O)C(C)C)C(=O)N[C@@H](C)C(=O)N[C@@H](Cc1c[nH]c2ccccc12)C(=O)N[C@@H](CC(C)C)C(=O)N[C@H](C(=O)N[C@@H](CCCCN)C(=O)NCC(=O)NCC(=O)N1CCC[C@H]1C(=O)N[C@@H](CO)C(=O)N[C@@H](CO)C(=O)NCC(=O)N[C@@H](C)C(=O)N1CCC[C@H]1C(=O)N1CCC[C@H]1C(=O)N1CCC[C@H]1C(=O)N[C@@H](CO)C(=O)N[C@@H](CCCCNC(=O)COc1ccc2c(c1)CC[C@@H]1[C@@H]2CC[C@]2(C)[C@@H](O)CC[C@@H]12)C(N)=O)C(C)C [GLP-1-CEX/E2]
EC50 (hGLP-1R [3]): 0.0316 nM | Emax (hGLP-1R [3]): 106 ± 6.2% | EC50 (hGLP-1R [4]): 29.5 nM | Emax (hGLP-1R [4]; HEK-293T): 100 ± 2.6% | EC50 (hGLP-1R [5]): 5.01 nM | Emax (hGLP-1R [5]; HEK-293T): 90.9 ± 1.5% | EC50 (hGLP-1R [6]): 44.6 nM | Emax (hGLP-1R [6]; HEK-293T): 94.2 ± 5.2% | EC50 (hGLP-1R [7]): 47.8 nM | Emax (hGLP-1R [7]; HEK-293T): 94 ± 9% | EC50 (hGLP-1R [8]): 142 nM | Emax (hGLP-1R [8]): 97.4 ± 14.8% | EC50 (hGLP-1R [9]): 62.2 nM | Emax (hGLP-1R [9]): 103 ± 5.7% | EC50 (hGLP-1R [10]): 162 nM | Emax (hGLP-1R [10]): 95.9 ± 4.1% | EC50 (hGLP-1R [11]): 16.8 nM | Emax (hGLP-1R [11]; HEK-293T): 111 ± 5.3% | EC50 (hGLP-1R [12]): 143 nM | Emax (hGLP-1R [12]; MIN6): 95.4 ± 7.7% | EC50 (hGLP-1R [13]): 158 nM | Emax (hGLP-1R [13]; MIN6): 98.6 ± 9.3% | EC50 (hGLP-1R [14]): 0.963 nM | Emax (hGLP-1R [14]; MIN6): 99.1 ± 4% | EC50 (hGLP-1R [15]): 245 nM | Emax (hGLP-1R [15]; MIN6): 76.7 ± 12.2% | EC50 (hGLP-1R [16]): 39.2 nM | Emax (hGLP-1R [16]; MIN6): 99 ± 4.9%

CO/C1=C\C(C)=C\[C@@H](C)[C@@H](O)[C@@H](C)C/C(C)=C/C=C/[C@H](OC)[C@@H]([C@@H](C)[C@@H](O)[C@H](C)[C@@]2(O)C[C@@H](O)[C@H](C)[C@@H](C(C)C)O2)OC1=O [bafilomycinA1]
off-target effect on stimulated ERα activation (ERα): did not have off-target effects on stimulated ERα activation by E2 or E2-3-ether | GLP-1R internalization on bafilomycinA1 pre/co-treatment (hGLP-1R [5]; 5 μM, with GLP-1 (7-36)amide (1 μM)): without affecting receptor internalization | GLP-1R retention in Rab5+ early endosomes on bafilomycinA1 pre/co-treatment ([2]; 5 μM): significantly increases GLP-1R retention in Rab5^+ early endosomes

C=C[C@@]1(C)CC(=O)[C@]2(O)[C@@]3(C)[C@@H](O)CCC(C)(C)[C@@H]3[C@H](O)[C@H](OC(C)=O)[C@@]2(C)O1 [forskolin, reference compound]
saturation of the cAMP sensor (hGLP-1R [11]; forskolin 50 μM, hGLP-1R+ HEK293T): Saturation of the cAMP sensor was not achieved
